From the supplement of paper PMC10307832

Experiments:
Assay in all cases: relative viability (nuclei count vs DMSO), 5 days (fraction); higher = more cells survive
[1] = test system: NCI-H441
Summary of the method: (§1)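 Lung cancer cell lines were seeded in 1536-well plates and dosed by pin tool the next day, with either a single drug or a fixed anchor-drug dose combined with five library-drug doses (not always all listed) spaced in √10 steps. Five days later, one step fixed the cells and stained their nuclei (final 0.05% Triton X-100, 1% formaldehyde, 1 ug/ml Hoechst), and nuclei were counted on 4× images. Relative viability is the nuclei count in treated wells divided by the count in vehicle wells, and each value is the median of duplicate plates.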

[2] = test system: 201T
Summary of the method: as §1

[3] = test system: SK-LU-1
Summary of the method: as §1

[4] = test system: NCI-H650
Summary of the method: as §1

[5] = test system: LCLC-97TM1
Summary of the method: as §1

[6] = test system: NCI-H1355
Summary of the method: as §1

[7] = test system: SW 1573
Summary of the method: as §1

[8] = test system: NCI-H1563
Summary of the method: as §1

[9] = test system: NCI-H1651
Summary of the method: as §1

[10] = test system: NCI-H838
Summary of the method: as §1

[11] = test system: NCI-H322M
Summary of the method: as §1

[12] = test system: NCI-H2347
Summary of the method: as §1

[13] = test system: BEN
Summary of the method: as §1

[14] = test system: HCC-78
Summary of the method: as §1

[15] = test system: NCI-H3122
Summary of the method: as §1

[16] = test system: HOP-62
Summary of the method: as §1

[17] = test system: LOU-NH91
Summary of the method: as §1

[18] = test system: NCI-H2126
Summary of the method: as §1

[19] = test system: NCI-H1944
Summary of the method: as §1

[20] = test system: NCI-H1915
Summary of the method: as §1

[21] = test system: CAL-12T
Summary of the method: as §1

CN1CCN(CCOc2cc(OC3CCOCC3)c3c(Nc4c(Cl)ccc5c4OCO5)ncnc3c2)CC1 [Saracatinib] + C[C@@H](Oc1cc(-c2cnn(C3CCNCC3)c2)cnc1N)c1c(Cl)ccc(F)c1Cl [Crizotinib] (partner 1 µM)
relative viability ([1]; first compound 0.02 µM): 0.95 | relative viability ([1]; first compound 0.2 µM): 0.601 | relative viability ([1]; first compound 0.6325 µM): 0.798 | relative viability ([1]; first compound 2 µM): 0.646 | relative viability ([2]; first compound 0.02 µM): 1.05 | relative viability ([2]; first compound 0.2 µM): 0.946 | relative viability ([2]; first compound 0.6325 µM): 0.962 | relative viability ([2]; first compound 2 µM): 0.862 | relative viability ([3]; first compound 0.02 µM): 0.774 | relative viability ([3]; first compound 0.2 µM): 0.646 | relative viability ([3]; first compound 0.6325 µM): 0.404 | relative viability ([3]; first compound 2 µM): 0.331 | relative viability ([4]; first compound 0.02 µM): 0.597 | relative viability ([4]; first compound 0.2 µM): 0.643 | relative viability ([4]; first compound 0.6325 µM): 0.639 | relative viability ([4]; first compound 2 µM): 0.622 | relative viability ([5]; first compound 0.02 µM): 0.416 | relative viability ([5]; first compound 0.2 µM): 0.268 | relative viability ([5]; first compound 0.6325 µM): 0.457 | relative viability ([5]; first compound 2 µM): 0.316 | relative viability ([6]; first compound 0.02 µM): 1.06 | relative viability ([6]; first compound 0.2 µM): 1.13 | relative viability ([6]; first compound 0.6325 µM): 1.08 | relative viability ([6]; first compound 2 µM): 0.925 | relative viability ([7]; first compound 0.02 µM): 0.744 | relative viability ([7]; first compound 0.2 µM): 0.801 | relative viability ([7]; first compound 0.6325 µM): 0.903 | relative viability ([7]; first compound 2 µM): 0.591 | relative viability ([8]; first compound 0.02 µM): 0.905 | relative viability ([8]; first compound 0.2 µM): 0.778 | relative viability ([8]; first compound 0.6325 µM): 0.677 | relative viability ([8]; first compound 2 µM): 0.635 | relative viability ([9]; first compound 0.02 µM): 0.866 | relative viability ([9]; first compound 0.2 µM): 0.802 | relative viability ([9]; first compound 0.6325 µM): 0.923 | relative viability ([9]; first compound 2 µM): 0.751 | relative viability ([10]; first compound 0.02 µM): 0.818 | relative viability ([10]; first compound 0.2 µM): 0.779 | relative viability ([10]; first compound 0.6325 µM): 0.608 | relative viability ([10]; first compound 2 µM): 0.582 | relative viability ([11]; first compound 0.02 µM): 0.971 | relative viability ([11]; first compound 0.2 µM): 0.831 | relative viability ([11]; first compound 0.6325 µM): 0.916 | relative viability ([11]; first compound 2 µM): 0.6 | relative viability ([12]; first compound 0.02 µM): 0.732 | relative viability ([12]; first compound 0.2 µM): 0.686 | relative viability ([12]; first compound 0.6325 µM): 1.03 | relative viability ([12]; first compound 2 µM): 0.486 | relative viability ([13]; first compound 0.02 µM): 0.77 | relative viability ([13]; first compound 0.2 µM): 0.738 | relative viability ([13]; first compound 0.6325 µM): 0.911 | relative viability ([13]; first compound 2 µM): 0.569 | relative viability ([14]; first compound 0.02 µM): 0.355 | relative viability ([14]; first compound 0.2 µM): 0.315 | relative viability ([14]; first compound 0.6325 µM): 0.317 | relative viability ([14]; first compound 2 µM): 0.207 | relative viability ([15]; first compound 0.02 µM): 0.28 | relative viability ([15]; first compound 0.6325 µM): 0.226 | relative viability ([15]; first compound 2 µM): 0.187 | relative viability ([16]; first compound 0.02 µM): 0.772 | relative viability ([16]; first compound 0.2 µM): 0.928 | relative viability ([16]; first compound 0.6325 µM): 0.841 | relative viability ([16]; first compound 2 µM): 1.02 | relative viability ([17]; first compound 0.02 µM): 0.692 | relative viability ([17]; first compound 0.2 µM): 0.57 | relative viability ([17]; first compound 0.6325 µM): 0.542 | relative viability ([17]; first compound 2 µM): 0.458 | relative viability ([18]; first compound 0.02 µM): 0.991 | relative viability ([18]; first compound 0.2 µM): 0.84 | relative viability ([18]; first compound 0.6325 µM): 1.02 | relative viability ([18]; first compound 2 µM): 0.894 | relative viability ([19]; first compound 0.02 µM): 1.11 | relative viability ([19]; first compound 0.6325 µM): 1.09 | relative viability ([19]; first compound 2 µM): 0.67 | relative viability ([20]; first compound 0.02 µM): 0.913 | relative viability ([20]; first compound 0.2 µM): 0.846 | relative viability ([20]; first compound 0.6325 µM): 0.916 | relative viability ([20]; first compound 2 µM): 0.875 | relative viability ([21]; first compound 0.02 µM): 0.649 | relative viability ([21]; first compound 0.2 µM): 0.522 | relative viability ([21]; first compound 0.6325 µM): 0.746 | relative viability ([21]; first compound 2 µM): 0.367
